ChEMBL document CHEMBL1201862, “PubChem BioAssay data set” (2004)
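Values below derive from 48-hour exposures of cells grown in 96-well plates, with endpoints linearly interpolated between the two concentrations bracketing the appropriate inhibition level. GI50 marks 50% less growth.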 The source made the active and inactive calls. Cut-off read from the data, not from the text of the source: active = GI50 up to about 1.1 µM and inactive = higher.

Legend:
Assay in all cases: NCI-60 cell line screen, 48 h
DU-145 = system: DU-145
PC-3 = system: PC-3
SK-MEL-28 = system: SK-MEL-28
SR = system: SR
786-0 = system: 786-0
LOX IMVI = system: LOX IMVI
NCI-H460 = system: NCI-H460
MDA-MB-231 = system: MDA-MB-231
MOLT-4 = system: MOLT-4
ACHN = system: ACHN
OVCAR-8 = system: OVCAR-8
A498 = system: A498
SK-MEL-2 = system: SK-MEL-2
SNB-19 = system: SNB-19
HCT-116 = system: HCT-116
HOP-92 = system: HOP-92
COLO 205 = system: COLO 205
Hs-578T = system: Hs-578T
SF-539 = system: SF-539
HCC 2998 = system: HCC 2998
UACC-62 = system: UACC-62
IGROV-1 = system: IGROV-1
M14 = system: M14
EKVX = system: EKVX
SF-268 = system: SF-268
RPMI-8226 = system: RPMI-8226
NCI/ADR-RES = system: NCI/ADR-RES
SF-295 = system: SF-295
NCI-H226 = system: NCI-H226
SN12C = system: SN12C
HL-60 = system: HL-60
OVCAR-3 = system: OVCAR-3
NCI-H23 = system: NCI-H23
Malme-3M = system: Malme-3M
HOP-62 = system: HOP-62
SNB-75 = system: SNB-75
T47D = system: T47D
SK-MEL-5 = system: SK-MEL-5
MCF7 = system: MCF7
K562 = system: K562
OVCAR-5 = system: OVCAR-5
CCRF-CEM = system: CCRF-CEM
MDA-N = system: MDA-N
KM12 = system: KM12
HT-29 = system: HT-29
RXF 393 = system: RXF 393
UACC-257 = system: UACC-257
A549 = system: A549
SK-OV-3 = system: SK-OV-3
BT-549 = system: BT-549
CAKI-1 = system: CAKI-1
SW-620 = system: SW-620
NCI-H522 = system: NCI-H522
HCT-15 = system: HCT-15
TK-10 = system: TK-10
OVCAR-4 = system: OVCAR-4
MDA-MB-435 = system: MDA-MB-435
U-251 = system: U-251
UO-31 = system: UO-31

CC(=O)CC(OC(C)=O)C1=CCC2C(CC1C)OC(=O)C2C (stereo not given)
GI50 (DU-145): > 100 µM (inactive) | GI50 (PC-3): > 100 µM (inactive) | GI50 (SK-MEL-28): > 100 µM (inactive) | GI50 (SR): 78.9 µM (inactive) | GI50 (786-0): > 100 µM (inactive) | GI50 (LOX IMVI): 88.5 µM (inactive) | GI50 (NCI-H460): > 100 µM (inactive) | GI50 (MDA-MB-231): > 100 µM (inactive) | GI50 (MOLT-4): > 100 µM (inactive) | GI50 (ACHN): > 100 µM (inactive) | GI50 (OVCAR-8): > 100 µM (inactive) | GI50 (A498): > 100 µM (inactive) | GI50 (SK-MEL-2): > 100 µM (inactive) | GI50 (SNB-19): > 100 µM (inactive) | GI50 (HCT-116): > 100 µM (inactive) | GI50 (HOP-92): > 100 µM (inactive) | GI50 (COLO 205): > 100 µM (inactive) | GI50 (Hs-578T): > 100 µM (inactive) | GI50 (SF-539): > 100 µM (inactive) | GI50 (HCC 2998): > 100 µM (inactive) | GI50 (UACC-62): > 100 µM (inactive) | GI50 (IGROV-1): > 100 µM (inactive) | GI50 (M14): > 100 µM (inactive) | GI50 (EKVX): > 100 µM (inactive) | GI50 (SF-268): > 100 µM (inactive) | GI50 (RPMI-8226): > 100 µM (inactive) | GI50 (NCI/ADR-RES): > 100 µM (inactive) | GI50 (SF-295): > 100 µM (inactive) | GI50 (NCI-H226): > 100 µM (inactive) | GI50 (SN12C): > 100 µM (inactive) | GI50 (HL-60): 40.6 µM (inactive) | GI50 (OVCAR-3): > 100 µM (inactive) | GI50 (NCI-H23): > 100 µM (inactive) | GI50 (Malme-3M): > 100 µM (inactive) | GI50 (HOP-62): > 100 µM (inactive) | GI50 (SNB-75): > 100 µM (inactive) | GI50 (T47D): > 100 µM (inactive) | GI50 (SK-MEL-5): > 100 µM (inactive) | GI50 (MCF7): > 100 µM (inactive) | GI50 (K562): > 100 µM (inactive) | GI50 (OVCAR-5): > 100 µM (inactive) | GI50 (CCRF-CEM): 64.9 µM (inactive) | GI50 (MDA-N): > 100 µM (inactive) | GI50 (KM12): > 100 µM (inactive) | GI50 (HT-29): > 100 µM (inactive) | GI50 (RXF 393): > 100 µM (inactive) | GI50 (UACC-257): > 100 µM (inactive) | GI50 (A549): > 100 µM (inactive) | GI50 (SK-OV-3): > 100 µM (inactive) | GI50 (BT-549): 75 µM (inactive) | GI50 (CAKI-1): > 100 µM (inactive) | GI50 (SW-620): > 100 µM (inactive) | GI50 (NCI-H522): > 100 µM (inactive) | GI50 (HCT-15): > 100 µM | GI50 (TK-10): > 100 µM (inactive) | GI50 (OVCAR-4): > 100 µM (inactive) | GI50 (MDA-MB-435): > 100 µM (inactive) | GI50 (U-251): > 100 µM (inactive)

O=CC(O)C(O)C1OC(=O)c2cc(O)c(O)c(O)c2C2=C(O)C(O)=C3OC(=O)c4c(c(O)c(O)c5c4C3C2C(=O)O5)-c2c(cc(O)c(O)c2O)C(=O)OCC1O (stereo not given)
GI50 (DU-145): 17.9 µM (inactive) | GI50 (PC-3): 43.7 µM (inactive) | GI50 (SK-MEL-28): 44.3 µM (inactive) | GI50 (SR): 24.1 µM (inactive) | GI50 (786-0): 16.3 µM (inactive) | GI50 (LOX IMVI): 13.6 µM (inactive) | GI50 (NCI-H460): 26.2 µM (inactive) | GI50 (MDA-MB-231): 19.1 µM (inactive) | GI50 (MOLT-4): 20.7 µM (inactive) | GI50 (ACHN): 44.2 µM (inactive) | GI50 (UO-31): 14.7 µM (inactive) | GI50 (OVCAR-8): 20.1 µM (inactive) | GI50 (A498): 44.9 µM (inactive) | GI50 (SK-MEL-2): 33 µM (inactive) | GI50 (SNB-19): 57.8 µM (inactive) | GI50 (HCT-116): 15.4 µM (inactive) | GI50 (HOP-92): 18 µM (inactive) | GI50 (COLO 205): 23.2 µM (inactive) | GI50 (Hs-578T): 67.1 µM (inactive) | GI50 (HCC 2998): 24.8 µM (inactive) | GI50 (UACC-62): 29.2 µM (inactive) | GI50 (IGROV-1): 51.6 µM (inactive) | GI50 (M14): 22.4 µM (inactive) | GI50 (EKVX): 23.7 µM (inactive) | GI50 (SF-268): 28.4 µM (inactive) | GI50 (RPMI-8226): 24.5 µM (inactive) | GI50 (NCI/ADR-RES): 88.5 µM (inactive) | GI50 (SF-295): 26.4 µM (inactive) | GI50 (NCI-H226): 21.4 µM (inactive) | GI50 (SN12C): 15.2 µM (inactive) | GI50 (HL-60): 12.3 µM (inactive) | GI50 (OVCAR-3): 18.2 µM (inactive) | GI50 (NCI-H23): 78 µM (inactive) | GI50 (Malme-3M): 81.8 µM (inactive) | GI50 (HOP-62): 72.6 µM (inactive) | GI50 (SNB-75): 27.4 µM (inactive) | GI50 (T47D): 37.5 µM (inactive) | GI50 (SK-MEL-5): 25.9 µM (inactive) | GI50 (MCF7): 17.2 µM (inactive) | GI50 (K562): 20.7 µM (inactive) | GI50 (OVCAR-5): 24 µM (inactive) | GI50 (CCRF-CEM): 20.4 µM (inactive) | GI50 (MDA-N): 19 µM (inactive) | GI50 (KM12): 10.4 µM (inactive) | GI50 (HT-29): 15.7 µM (inactive) | GI50 (RXF 393): > 100 µM (inactive) | GI50 (UACC-257): 49.5 µM (inactive) | GI50 (A549): 24.5 µM (inactive) | GI50 (SK-OV-3): 25.9 µM (inactive) | GI50 (BT-549): > 100 µM (inactive) | GI50 (CAKI-1): 18.1 µM (inactive) | GI50 (SW-620): 16.9 µM (inactive) | GI50 (NCI-H522): 35.6 µM (inactive) | GI50 (HCT-15): 20.3 µM | GI50 (OVCAR-4): 16.7 µM (inactive) | GI50 (MDA-MB-435): 16.5 µM (inactive) | GI50 (U-251): 19.2 µM (inactive)
